This note sets out measurements from ChEMBL document CHEMBL3352249, “Novel indolizine derivatives with unprecedented inhibitory activity on human farnesyltransferase” (Bioorg Med Chem Lett, 2014).

By IC50 is commonly meant the point on the concentration scale where inhibition reaches its midpoint. The term inhibition denotes the percentage by which the read-out fell short of the control.

For assay [1], the target named is T1, Protein farnesyltransferase (Homo sapiens, UniProt P49354+P49356). Description: Inhibition of human recombinant farnesyltransferase using Dansyl-GCVLS peptide as substrate after 15 mins by fluorescence assay.
Assay [2] concerns the target T1, Protein farnesyltransferase. Description: Inhibition of human recombinant farnesyltransferase using Dansyl-GCVLS peptide as substrate at 100 uM after 15 mins by fluorescence assay.

Turning to `Cc1cccc2c(C(=O)O)cc(C(=O)c3ccc(Br)cc3)n12`, in assay [1], the half-maximal inhibitory concentration (IC50) was 14.8 µM. Also, the inhibition in assay [2] was determined as 91%.
Consider `C#CCNC(=O)c1cc(C(=O)c2ccc(Cl)cc2)n2c(C)cccc12`, for which, in assay [1], the IC50 was found to be 14.9 µM. For the same compound, the inhibition in assay [2] was found to be 97%.
In the case of `C#CCOC(=O)c1cc(C(=O)c2ccc(Cl)cc2)n2ccc(C)cc12`, the inhibition in assay [2] is 0%.
`C#CCCOC(=O)c1cc(C(=O)c2ccc(Br)cc2)n2ccccc12`: the inhibition in assay [2] came to 0%.
On the same count and under the same terms, for `Cc1ccn2c(C(=O)c3ccc(Cl)cc3)cc(C(=O)O)c2c1` the value was 0%.
Regarding `C#CCNC(=O)c1cc(C(=O)c2ccccc2)n2c(C)cccc12`, the IC50 in assay [1] was found to be 57.8 µM. Also, the inhibition in assay [2] stood at 74%.
For `C#CCCOC(=O)c1cc(C(=O)c2ccc(Br)cc2)n2c(C)cccc12`, in assay [1], the IC50 amounted to 2.2 µM. Besides, in assay [2], the inhibition was 100%.
As for `C#CCOC(=O)c1cc(C(=O)c2ccccc2)n2c(C)cccc12`, the IC50 in assay [1] came to 20.8 µM. In addition, the inhibition in assay [2] stood at 93%.
Consider `C#CCOC(=O)c1cc(C(=O)c2ccccc2)n2ccc(C)cc12`, for which the inhibition in assay [2] was determined as 72%.
As to `C#CCOC(=O)c1cc(C(=O)c2ccc(Cl)cc2)n2ccccc12`, the inhibition in assay [2] was determined as 54%.
In the case of `C#CCCOC(=O)c1cc(C(=O)c2ccccc2)n2ccccc12`, the inhibition in assay [2] is 61%.
Consider `CCCCCCCCCCCCCC/C(C(=O)O)=C(\C)C(=O)O` [CHAETOMELLIC ACID A], for which the half-inhibitory concentration (IC50) in assay [1] came to 0.18 µM. Besides, the inhibition in assay [2] was 100%.
As to `Cc1cccc2c(C(=O)O)cc(C(=O)c3ccccc3)n12`, the inhibition in assay [2] amounted to 48%.
On to `C#CCCOC(=O)c1cc(C(=O)c2ccc(Cl)cc2)n2ccccc12`, for which the inhibition in assay [2] amounted to 0%.
Consider `C#CCNC(=O)c1cc(C(=O)c2ccccc2)n2ccc(C)cc12`, for which the half-maximal inhibitory concentration (IC50) in assay [1] is 15.3 µM. The inhibition in assay [2] came out at 100%.
Consider `C#CCNC(=O)c1cc(C(=O)c2ccc(Cl)cc2)n2ccccc12`, for which, in assay [1], the half-inhibitory concentration (IC50) was 5.9 µM. Besides, the inhibition in assay [2] worked out at 94%.
For the compound `Cc1ccn2c(C(=O)c3ccccc3)cc(C(=O)O)c2c1`, the IC50 in assay [1] came out at 72.3 µM. The inhibition in assay [2] is 100%.
The matching figures for `C#CCCOC(=O)c1cc(C(=O)c2ccc(Cl)cc2)n2c(C)cccc12`: 20.7 µM and 97%.
`O=C(O)c1cc(C(=O)c2ccc(Br)cc2)n2ccccc12`: the 50% inhibitory concentration (IC50) in assay [1] is 19.4 µM. Also, the inhibition in assay [2] turned out to be 100%.
With `O=C(O)c1cc(C(=O)c2ccc(Cl)cc2)n2ccccc12`, in assay [1], the half-inhibitory concentration (IC50) is 20.7 µM. Also, the inhibition in assay [2] amounted to 100%.
As to `Cc1cccc2c(C(=O)O)cc(C(=O)c3ccc(Cl)cc3)n12`, in assay [1], the IC50 amounted to 32.2 µM. Further, the inhibition in assay [2] came out at 79%.
With `C#CCNC(=O)c1cc(C(=O)c2ccc(Br)cc2)n2ccccc12`, in assay [1], the IC50 was 4.4 µM. Further, the inhibition in assay [2] was found to be 100%.
`C#CCCOC(=O)c1cc(C(=O)c2ccccc2)n2ccc(C)cc12`: the inhibition in assay [2] was determined as 0%.
On to `O=C(O)c1cc(C(=O)c2ccccc2)n2ccccc12`, for which the IC50 in assay [1] was 19.7 µM. The inhibition in assay [2] was 100%.
Take `C#CCCOC(=O)c1cc(C(=O)c2ccc(Cl)cc2)n2ccc(C)cc12`: in assay [2], the inhibition was 0%.
Consider `Cc1ccn2c(C(=O)c3ccc(Br)cc3)cc(C(=O)O)c2c1`, for which the inhibition in assay [2] was found to be 0%.
On to `C#CCCOC(=O)c1cc(C(=O)c2ccccc2)n2c(C)cccc12`, for which, in assay [1], the half-maximal inhibitory concentration (IC50) amounted to 7.3 µM. Also, in assay [2], the inhibition worked out at 94%.
In the case of `C#CCNC(=O)c1cc(C(=O)c2ccccc2)n2ccccc12`, the IC50 in assay [1] came to 22.1 µM. Also, the inhibition in assay [2] worked out at 100%.
With `C#CCCOC(=O)c1cc(C(=O)c2ccc(Br)cc2)n2ccc(C)cc12`, the inhibition in assay [2] was determined as 68%.
`C#CCOC(=O)c1cc(C(=O)c2ccccc2)n2ccccc12`: the half-inhibitory concentration (IC50) in assay [1] stood at 14.4 µM. Further, the inhibition in assay [2] was found to be 100%.
`C#CCOC(=O)c1cc(C(=O)c2ccc(Br)cc2)n2c(C)cccc12`: in assay [1], the IC50 came out at 1.3 µM. Further, the inhibition in assay [2] is 100%.
The corresponding values for `C#CCNC(=O)c1cc(C(=O)c2ccc(Br)cc2)n2c(C)cccc12` are 11.4 µM and 90%.
For the compound `C#CCOC(=O)c1cc(C(=O)c2ccc(Cl)cc2)n2c(C)cccc12`, the IC50 in assay [1] amounted to 2.6 µM. For the same compound, in assay [2], the inhibition came out at 100%.
